Data taken from US10920191B2, “Methods of screening embryonic progenitor cell lines” (LINEAGE CELL THERAPEUTICS, INC., priority 2008, dated 2021).

Assays:
Type in all cases: cell-based, human
cell line Z2 = experiment: Differentiation of cell line Z2 with individual differentiation factors, Illumina microarray readout
From the text: (§1) To reduce variations in gene expression due to cell cycle artifacts, and to capture an early gene expression profile of the cells, upon being expanded to six well plates, on the day the cells reached confluence, the cells were placed in media with a reduction of serum to 0.5% in the case where the original serum concentration was >5%. In all other cases, serum and/or other growth factors was reduced to 10% of their original values. These quiescence conditions were imposed for five days and all cultures were re-fed two days prior to harvest to reduce feeding difference artifacts. So, by way of example, if the original media was DMEM medium with 10% FCS, then the quiescence synchronization media was DMEM with 0.5% FCS. Total RNA was extracted directly from cells growing in 6-well or 6 cm tissue culture plates using Qiagen Rneasy mini kits according to the manufacturer's instructions. RNA concentrations were measured using a Beckman DU530 or Nanodrop spectrophotometer and RNA quality determined by denaturing agarose gel electrophoresis or an Agilent 2100 bioanalyzer. Whole-genome expression analysis was carried out using Affymetrix Human Genome U133 Plus 2.0 GeneChip® system, Illumina Human-6 v1 and HumanRef-8 v1 Beadchips (Illumina 1), and Illumina Human-6 v2 Beadchips (Illumina 2), and RNA levels for certain genes were confirmed by quantitative PCR. For Illumina BeadArrays, total RNA was linearly amplified and biotin-labeled using Illumina TotalPrep kits (Ambion), and cRNA was quality controlled using an Agilent 2100 Bioanalyzer. cRNA was hybridized to Illumina BeadChips, processed, and read using a BeadStation array reader according to the manufacturer's instructions (Illumina). Relative Fluorescence Unit (RFU) values for all of the cell lines with common probe sets were quantile normalized.
The cell lines of the present invention 7SMOO7 (also designated ACTC298 and used at P18), C4.4 (also designated ACTC87 and used at P14), E44 (also designated ACTC170 and used at P18), E69 (also designated ACTC101 and used at P15), SK17 (also designated ACTC162 and used at P14), SK31 (also designated ACTC164 used at P15), SM35 (also designated ACTC260 used at P12), T36 (also designated ACTC198 used at P19), T43 (also designated ACTC120 used at P17), W11 (also designated ACTC197 used at P12), and Z2 (also designated ACTC255 used at P12), are cultured to five day quiescence as described herein or alternatively exposed to differentiation conditions of Differentiation Factor Protocol I in Table VIII. […] RNA was isolated as described herein and analyzed by Illumina microarrays. […]

cell line SK17 = experiment: Differentiation of cell line SK17 with individual differentiation factors, Illumina microarray readout; conditions: SK17, after day 14, retinoic acid added (1.0 uM)
From the text: as §1, with “So, by way of example, if the original media was DMEM medium with 10% FCS, then the quiescence synchronization media was DMEM with 0.5% FCS. Total RNA was extracted directly from cells growing in 6-well or 6 cm tissue culture plates using Qiagen Rneasy mini kits according to the manufacturer's instructions.” left out, “Relative Fluorescence Unit (RFU) values for all of the cell lines with common probe sets were quantile normalized.” left out

cell line B16 = experiment: Differentiation of cell line B16 in gels containing crosslinked hyaluronic acid and gelatin; conditions: B16, hyaluronic acid/gelatin hydrogel, in the presence of retinoic acid
From the text: The cell line of the present invention designated B16 (ACTC59) that expresses the unique pattern of markers MKX (accession number NM_173576.1), CDH10 (accession number NM_006727.2), MEG3 (accession number NR_002766.1), SCUBE3 (accession number NM_152753.2), and distal HOX genes HOXA11 (accession number NM_000522.3), and HOXD11 (accession number NM_021192.2) when synchronized at quiescence as described herein by culturing 5 days at confluence in DMEM medium with 0.5% serum at passage 16-19 was differentiated in micromass conditions and in a hydrogel containing crosslinked hyaluronic acid and gelatin with supplemented growth factors from Table III as described in Table VIII under the headings “In vitro conditions to induce chondrogenenesis—Micromass Culture” and “Differentiation in gels containing crosslinked hyaluronic acid and gelatin” in the presence of TGFβ3 and retinoic acid as also described in Table VIII under the subheadings “Differentiation in Hydrogels Containing Crosslinked Hyaluronic Acid and Gelatin to Induce Chondrogenesis” and “Retinoic acid and EGF-Containing HyStem-CSS” respectively. […]

W10 cell line = experiment: Differentiation of cell line W10, two weeks of culture with retinoic acid; conditions: 1.0 uM all trans retinoic acid
From the text: The HAND2 and SCARA5 positive cell line W10 (also known as ACTC196) whose most distal HOX gene expression was HOXA4, B7, which is described in U.S. patent application Ser. No. 12/504,630 filed on Jul. 16, 2009 and titled “Methods to Accelerate the Isolation of Novel Cell Strains from Pluripotent Stem Cells and Cells Obtained Thereby”, incorporated herein by reference in its entirety, and whose gene expression markers at 18-21 doublings of clonal expansion are disclosed in Table 1, was passaged to P14. […] cells for 14 days under conditions described as In vitro conditions to induce chondrogenenesis—Micromass Culture in Table VIII, that are expected to cause chondrogenic differentiation in cells capable of such differentiation. […] The presence of MYH11 was confirmed by immunocytochemistry.

[1] = Z2 (P12), 14 days, EGF 100 ng/ml, RFU >150 considered positive

## bFGF: growth factor used as individual differentiation factor
Cell line Z2; Z2, 14 days, 10 ng/mL bFGF
  BMP7 expression by microarray: 196 RFU

## recombinant human EGF: recombinant human EGF used as differentiation factor
Cell line Z2; [1]
  BMP2 expression by microarray: 1015 RFU
  BMP7 expression by microarray: 1084 RFU

## CC1=C(/C=C/C(C)=C/C=C/C(C)=C/C(=O)O)C(C)(C)CCC1 [retinoic acid, all-trans retinoic acid]
Cell line SK17
  MYH11 (smooth muscle marker) expression by microarray: 1715 RFUs
  renin (REN) expression by microarray: markedly upregulated
Cell line B16
  NPPB (natriuretic peptide precursor B) expression: 11,851 RFUs
W10 cell line
  MYH11 expression: induction of MYH11
Cell line Z2; Z2, 14 days, 1.0 uM retinoic acid
  BMP7 expression by microarray: 271 RFU
